Marks after values point to notes of the source that are not given here.
How the values were obtained:
Format in all cases: in vivo, Kunming mice
[1] = Pharmacokinetics of GQD constituents in the portal vein of mice after oral GQD; conditions: for AUC(0-t): read-out: AUC0–24 h
Method: (§1) Fifty-four Kunming mice were randomly divided into nine groups according to body weight and gender (3 male and three female in each group). Each group was orally administered with water solution (0.2 ml/10 g body weight) of the GQD extract powder at the dosage of 6.1 g/kg body weight. The dosage of GQD extract powder equals to 18 g/kg herbal pieces of GQD, which is equivalent to its clinical dosage. At each designed time point (0.08, 0.25, 0.5, 1, 2, 4, 8, 12, and 24 h) after oral administration, six mice were anesthetized with ether, and blood was collected from the portal vein (about 0.2 ml, aspirated in a 1 ml heparinized syringe) and then the systemic circulation (about 0.2 ml, collected in heparinized tubes after removal of the eyeball) of the mice to prepare plasma samples, and the livers and the colons were removed to prepare respective homogenate. After pretreatment, the concentrations of 19 major constituents of GQD in each sample were measured by the validated LC-MS/MS method (see “2.3”). Then the C-T curves of the constituents in the plasma and the tissue homogenates were respectively drawn and their pharmacokinetic parameters were respectively calculated.
(§2) It should be noted that the pharmacokinetic parameters of a GQD constituent was calculated based on its average concentration in six mice at each time point. The results were expressed as mean ± SD.

[2] = Pharmacokinetics of GQD constituents in the systemic circulation of mice after oral GQD; conditions: mouse; for half-life / Tmax / Cmax / MRT / AUC(0-t): both, Kunming; for AUC(0-t): read-out: AUC0–24 h
Method: as §1, §2

[3] = Pharmacokinetics/tissue distribution of GQD constituents in the livers of mice after oral GQD
Method: (§3) The liver and the colon homogenates were prepared with 10 times (V: W) the volume of ascorbic acid solution (200 μg/ml). Then the homogenates were pretreated as plasma to obtain the tissue samples for LC-MS/MS analysis. Fifty-four Kunming mice were randomly divided into nine groups according to body weight and gender (3 male and three female in each group). […] Then the C-T curves of the constituents in the plasma and the tissue homogenates were respectively drawn and their pharmacokinetic parameters were respectively calculated. […] It should be noted that the pharmacokinetic parameters of a GQD constituent was calculated based on its average concentration in six mice at each time point. The results were expressed as mean ± SD.

[4] = Pharmacokinetics/tissue distribution of GQD constituents in the colons of mice after oral GQD
Method: as §3

[5] = both, Kunming, mouse, portal vein plasma, po, […], portal vein plasma, mice, oral GQD extract […], read-out: Tmax
[6] = both, Kunming, mouse, portal vein plasma, mice, oral GQD extract 6.1 g/kg
[7] = both, Kunming, mouse, portal vein plasma, mice, oral GQD extract 6.1 g/kg, read-out: T1/2 (converted)
[8] = systemic circulation plasma, po, […], systemic circulation plasma, mice, oral GQD […], read-out: T1/2 (converted)
[9] = systemic circulation plasma, po, […], systemic circulation plasma, mice, oral GQD […], read-out: Tmax
[10] = systemic circulation plasma, mice, oral GQD 6.1 g/kg
[11] = both, Kunming, mouse, liver (homogenate), po, […], liver, mice, oral GQD extract […], read-out: T1/2 (converted)
[12] = both, Kunming, mouse, liver (homogenate), liver, mice, oral GQD extract 6.1 g/kg
[13] = both, Kunming, mouse, liver (homogenate), liver, mice, oral GQD extract 6.1 g/kg, read-out: Tmax
[14] = liver, mice, oral GQD extract […]
[15] = both, Kunming, mouse, colon (homogenate), po, […], colon, mice, oral GQD extract […], read-out: T1/2 (converted)
[16] = both, Kunming, mouse, colon (homogenate), colon, mice, oral GQD extract 6.1 g/kg
[17] = both, Kunming, mouse, colon (homogenate), colon, mice, oral GQD extract 6.1 g/kg, read-out: Tmax
[18] = colon, mice, oral GQD extract […]
[19] = both, Kunming, mouse, in vivo, po, […]
[20] = both, Kunming, mouse, in vivo, po, […], Tmax
[21] = both, Kunming, mouse, in vivo, po, […], T1/2
[22] = both, Kunming, mouse, in vivo, portal vein plasma, mice, oral GQD extract 6.1 g/kg
[23] = in vivo, systemic circulation plasma, mice, oral GQD 6.1 g/kg
[24] = both, Kunming, mouse, in vivo, liver, mice, oral GQD extract 6.1 g/kg
[25] = both, Kunming, mouse, in vivo, colon, mice, oral GQD extract 6.1 g/kg
[26] = portal vein plasma, mice, oral GQD extract […]

O=c1cc(-c2ccccc2)oc2cc(O)c(O)c(O)c12 [Baicalein, baicalein]
Tmax [1, 5]: 2 h | Cmax [1, 6]: 381 ng/mL | MRT [1, 6]: 3.8 h | AUC(0-t) [1, 6]: 1760 ng·h/mL | half-life [1, 7]: 1.3 h | half-life [2, 8]: 6.3 h | Tmax [2, 9]: 4 h | Cmax [2, 10]: 26.7 ng/mL | MRT [2, 10]: 6.8 h | AUC(0-t) [2, 10]: 229 ng·h/mL | half-life [3, 11]: 2 to 3 h | Cmax [3, 12]: 9020 ng/g | MRT [3, 12]: 4.3 h | Tmax [3, 13]: 4 h | T1/2 [3, 14]: 2.3 h | half-life [4, 15]: 2 to 3 h | Cmax [4, 16]: 1920 ng/g | MRT [4, 16]: 5.8 h | Tmax [4, 17]: 4 h | T1/2 [4, 18]: 2.6 h

O=C(O)[C@H]1O[C@@H](Oc2cc3oc(-c4ccccc4)cc(=O)c3c(O)c2O)[C@H](O)[C@@H](O)[C@@H]1O [Baicalin, baicalin]
Tmax [1, 5]: 4 h | Cmax [1, 6]: 8150 ng/mL | MRT [1, 6]: 4.5 h | AUC(0-t) [1, 6]: 46300 ng·h/mL | half-life [1, 7]: 2 h | half-life [2, 8]: 3.1 h | Tmax [2, 9]: 4 h | Cmax [2, 10]: 1450 ng/mL | MRT [2, 10]: 5.1 h | AUC(0-t) [2, 10]: 8670 ng·h/mL | half-life [3, 11]: 1 to 2 h | Cmax [3, 12]: 5710 ng/g | MRT [3, 12]: 3.7 h | Tmax [3, 13]: 2 h | T1/2 [3, 14]: 1.7 h | half-life [4, 15]: 15 to 19 h | Cmax [4, 16]: 3460 ng/g | MRT [4, 16]: 9.9 h | Tmax [4, 17]: 1 h | T1/2 [4, 18]: 18.6# h

COc1ccc2cc3[n+](cc2c1O)CCc1cc2c(cc1-3)OCO2 [Berberrubine, berberrubine]
Tmax [1, 5]: 0.25 h | Cmax [1, 6]: 10.3 ng/mL | MRT [1, 6]: 4.4 h | AUC(0-t) [1, 6]: 67 ng·h/mL | half-life [1, 7]: 5.1 h | half-life [3, 11]: 15 to 19 h | Cmax [3, 12]: 186 ng/g | MRT [3, 12]: 11 h | Tmax [3, 13]: 4 h | T1/2 [3, 14]: 18.2# h | half-life [4, 15]: 14.3 h | Cmax [4, 16]: 293 ng/g | MRT [4, 16]: 10.1 h | Tmax [4, 17]: 4 h

c1c2c(cc3c1OCO3)-c1cc3ccc4c(c3c[n+]1CC2)OCO4 [Coptisine, coptisine]
half-life [1, 19]: 4.7 h | Tmax [1, 20]: 4 h | half-life ([2]; in vivo, po, […], T1/2): 10.8 h | Tmax ([2]; in vivo, po, […], Tmax): 0.25 h | Kp ([3]; both sexes, Kunming, mouse, in vivo, po, AUC0–24 h liv/AUC0–24 h por): 10.5 | Tmax [3, 19]: 2 h | half-life [3, 21]: 3.7 h | Tmax [4, 19]: 4 h | half-life [4, 21]: 4.3 h

O=c1c(-c2ccc(O)cc2)coc2cc(O)ccc12 [Daidzein, daidzein]
half-life [1, 19]: 2.6 h | Tmax [1, 20]: 0.25 to 0.5 h | half-life ([2]; in vivo, po, […], T1/2): 1.5 h | Tmax ([2]; in vivo, po, […], Tmax): 0.25 to 0.5 h | T1/2 [3, 19]: 3.6 h | Tmax [3, 19]: 0.25 h | half-life [3, 21]: 3 to 4 h | Tmax [4, 19]: 1 h

O=c1c(-c2ccc(O)cc2)coc2cc(O[C@@H]3O[C@H](CO)[C@@H](O)[C@H](O)[C@H]3O)ccc12 [Daidzin, daidzin]
Cmax [1, 22]: 76.9 ng/mL | MRT [1, 22]: 2 h | AUC(0-t) [1, 22]: 151 ng·h/mL | half-life ([1]; both, Kunming, mouse, in vivo, portal vein plasma, mice, oral GQD extract 6.1 g/kg, read-out: T1/2 (converted)): 1.8 h | Tmax ([1]; both, Kunming, mouse, in vivo, portal vein plasma, mice, oral GQD extract 6.1 g/kg, read-out: Tmax): 0.25 h | Cmax [2, 23]: 49 ng/mL | MRT [2, 23]: 1.8 h | AUC(0-t) [2, 23]: 85.7 ng·h/mL | half-life ([2]; in vivo, systemic circulation plasma, mice, oral GQD 6.1 g/kg, read-out: T1/2 (converted)): 1.8 h | Tmax ([2]; in vivo, systemic circulation plasma, mice, oral GQD 6.1 g/kg, read-out: Tmax): 0.25 h | Cmax [3, 24]: 54.1 ng/g | MRT [3, 24]: 3.6 h | half-life ([3]; both, Kunming, mouse, in vivo, liver, mice, oral GQD extract 6.1 g/kg, read-out: T1/2 (converted)): 3.4 h | Tmax ([3]; both, Kunming, mouse, in vivo, liver, mice, oral GQD extract 6.1 g/kg, read-out: Tmax): 0.5 h | Cmax [4, 25]: 114 ng/g | MRT [4, 25]: 9.9 h | half-life ([4]; both, Kunming, mouse, in vivo, colon, mice, oral GQD extract 6.1 g/kg, read-out: T1/2 (converted)): 11 h | Tmax ([4]; both, Kunming, mouse, in vivo, colon, mice, oral GQD extract 6.1 g/kg, read-out: Tmax): 1 h

COc1ccc2cc3[n+](cc2c1OC)CCc1cc(O)c(O)cc1-3 [Demethyleneberberine, demethyleneberberine]
T1/2 ([3]; mouse, in vivo, po, […]): 11.1 h | T1/2 ([4]; mouse, in vivo, po, […]): 2.4 h

COc1cc2c(cc1OC)-c1cc3ccc4c(c3c[n+]1CC2)OCO4 [Epiberberine, epiberberine]
T1/2 ([1]; mouse, in vivo, po, […]): 5.6 h | AUC0–24 h liv/AUC0–24 h cir ([3]; mouse, in vivo, po): 9.9 | AUC0–24 h liv/AUC0–24 h por ([3]; mouse, in vivo, po): 3.8 | T1/2 ([4]; mouse, in vivo, po, […]): 3.3 h

CC1(C)[C@@H](O[C@H]2O[C@H](C(=O)O)[C@@H](O)[C@H](O)[C@H]2O[C@@H]2O[C@H](C(=O)O)[C@@H](O)[C@H](O)[C@H]2O)CC[C@]2(C)[C@H]3C(=O)C=C4[C@@H]5C[C@@](C)(C(=O)O)CC[C@]5(C)CC[C@@]4(C)[C@]3(C)CC[C@@H]12 [Glycyrrhizic acid, glycyrrhizic acid]
Tmax [1, 5]: 2 h | Cmax [1, 6]: 77.1 ng/mL | MRT [1, 6]: 3.7 h | AUC(0-t) [1, 6]: 422 ng·h/mL | half-life [1, 7]: 2.9 h | half-life [3, 11]: 3.8 h | Cmax [3, 12]: 148 ng/g | MRT [3, 12]: 2.8 h | Tmax [3, 13]: 1 h | half-life [4, 15]: 3 to 4 h | Cmax [4, 16]: 2010 ng/g | MRT [4, 16]: 4.8 h | Tmax [4, 17]: 2 h | T1/2 [4, 18]: 3.3 h

O=C1C[C@@H](c2ccc(O)cc2)Oc2cc(O)ccc21 [Liquiritigenin, liquiritigenin]
T1/2 [1, 26]: 5.9 h | Tmax [1, 26]: 2.0 h | Tmax [3, 14]: 0.25 h | T1/2 [4, 18]: 3.4 h | Tmax [4, 18]: 4.0 h

COc1c(O[C@@H]2O[C@H](C(=O)O)[C@@H](O)[C@H](O)[C@H]2O)cc(O)c2c(=O)cc(-c3ccccc3)oc12 [Wogonoside, wogonoside]
T1/2 ([1]; mouse, in vivo, po, […]): 2.6 h | T1/2 ([2]; in vivo, po, […]): 3.9 h | AUC0–24 h liv/AUC0–24 h cir ([3]; mouse, in vivo, po): 0.15 | AUC0–24 h liv/AUC0–24 h por ([3]; mouse, in vivo, po): 0.03 | T1/2 ([3]; mouse, in vivo, po, […]): 16.2 h

Source: paper PMC9592910, “Tissue distribution and integrated pharmacokinetic properties of major effective constituents of oral Gegen-Qinlian decoction in mice” (Frontiers in Pharmacology, 2022)
